According to PMC4503722, “Novel Phenotypic Outcomes Identified for a Public Collection of Approved Drugs from a Publicly Accessible Panel of Assays” (PLoS ONE, 2015):
Read-outs that look alike come from different tables or passages of the source.

How the values were obtained:
[1] = test system: HeLa cells; assay: cells; assay type: cell-based; conditions: Homo sapiens, HeLa, HeLa, read-out: CellCycle G2/M
[2] = test system: HT-29; assay: cells; assay type: cell-based
[3] = test system: RKO; assay: cells; assay type: cell-based
[4] = test system: HCT116; assay: cells; assay type: cell-based; conditions: Homo sapiens
[5] = test system: nuclear β-catenin in C2C12 cells; assay: cells; assay type: cell-based
[6] = test system: DLD-1; assay: cells; assay type: cell-based; conditions: Homo sapiens
[7] = test system: SW480; assay: cells; assay type: cell-based; conditions: Homo sapiens
[8] = test system: Colo320; assay: cells; assay type: cell-based; conditions: Homo sapiens
[9] = molecular target: T1, hGSK3b (Homo sapiens, UniProt P49841); assay: Cerep LANCE kinase assay hGSK3b (S1 assay 34); assay type: biochemical; conditions: read-out: GSK3b
T1 construct: purchased Cerep (LANCE kinase assay platform, contract assay)

[10] = test system: endothelial tube formation in co-cultures of ECFCs and ADSCs treated with VEGF; assay: cells; assay type: cell-based, human
[11] = molecular target: T2, hFLT3 (Homo sapiens, UniProt P36888); assay: Cerep LANCE kinase assay hFLT3 (S1 assay 35); assay type: biochemical; conditions: read-out: FLT3
T2 construct: purchased Cerep (LANCE kinase assay platform, contract assay)

[12] = molecular target: T3, hJAK2 (Homo sapiens, UniProt O60674); assay: Cerep LANCE kinase assay hJAK2 (S1 assay 33); assay type: biochemical; conditions: read-out: JAK2
T3 construct: purchased Cerep (LANCE kinase assay platform, contract assay)

[13] = test system: NCI-H716 cells; assay: cells; assay type: cell-based, Human
[14] = test system: INS-1E cells; assay: cells; assay type: cell-based, rat
[15] = molecular target: T4, hKDR (Homo sapiens, UniProt P35968); assay: Cerep LANCE kinase assay hKDR (S1 assay 32); assay type: biochemical; conditions: read-out: KDR
T4 construct: purchased Cerep (LANCE kinase assay platform, contract assay)

[16] = test system: HCT116 cells treated with a GSK3β inhibitor; assay: cells; assay type: cell-based; conditions: Homo sapiens
[17] = molecular target: T5, hp70S6K1 (RPS6KB1) (Homo sapiens, UniProt P23443); assay: Cerep LANCE kinase assay hp70S6K1 (S1 assay 31); assay type: biochemical; conditions: read-out: p70S6K1
T5 construct: purchased Cerep (LANCE kinase assay platform, contract assay)

[18] = test system: SNU-C1; assay: cells; assay type: cell-based; conditions: Homo sapiens
[19] = COLO 320, read-out: Basal_Viability ATP Colo 320
[20] = Homo sapiens, HT-29, read-out: Basal_Viability ATP HT-29
[21] = Homo sapiens, RKO, read-out: Basal_Viability ATP RKO
[22] = HCT-116, read-out: Basal_Viability ATP HCT116
[23] = Mus musculus, C2C12, read-out: Wnt Pathway
[24] = DLD-1, read-out: Basal_Viability ATP DLD-1
[25] = SW480, read-out: Basal_Viability ATP SW480
[26] = Homo sapiens, read-out: Anti-Angiogenesis
[27] = Homo sapiens, NCI-H716, read-out: GLP 1 Secretion
[28] = Rattus norvegicus, INS-1E, read-out: Insulin Secretion
[29] = HCT-116, read-out: GSK3b inh pretreated_Viability ATP HCT116
[30] = SNU-C1, read-out: Basal_Viability ATP SNU-C1

T5 sequence (P23443 whole entry): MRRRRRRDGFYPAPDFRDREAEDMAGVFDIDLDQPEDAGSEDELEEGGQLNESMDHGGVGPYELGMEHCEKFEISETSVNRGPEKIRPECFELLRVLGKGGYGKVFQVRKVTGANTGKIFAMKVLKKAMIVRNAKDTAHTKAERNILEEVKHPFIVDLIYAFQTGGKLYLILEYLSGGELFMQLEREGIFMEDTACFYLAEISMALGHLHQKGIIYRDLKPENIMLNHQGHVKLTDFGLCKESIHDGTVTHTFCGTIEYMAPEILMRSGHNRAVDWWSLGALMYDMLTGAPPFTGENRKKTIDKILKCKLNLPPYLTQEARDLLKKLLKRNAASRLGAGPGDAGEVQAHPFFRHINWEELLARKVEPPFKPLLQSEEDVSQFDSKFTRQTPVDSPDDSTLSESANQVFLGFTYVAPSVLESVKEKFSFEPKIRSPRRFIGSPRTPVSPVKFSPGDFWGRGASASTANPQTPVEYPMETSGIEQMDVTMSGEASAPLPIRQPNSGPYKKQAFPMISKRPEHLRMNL
T4 sequence (P35968 20-1356): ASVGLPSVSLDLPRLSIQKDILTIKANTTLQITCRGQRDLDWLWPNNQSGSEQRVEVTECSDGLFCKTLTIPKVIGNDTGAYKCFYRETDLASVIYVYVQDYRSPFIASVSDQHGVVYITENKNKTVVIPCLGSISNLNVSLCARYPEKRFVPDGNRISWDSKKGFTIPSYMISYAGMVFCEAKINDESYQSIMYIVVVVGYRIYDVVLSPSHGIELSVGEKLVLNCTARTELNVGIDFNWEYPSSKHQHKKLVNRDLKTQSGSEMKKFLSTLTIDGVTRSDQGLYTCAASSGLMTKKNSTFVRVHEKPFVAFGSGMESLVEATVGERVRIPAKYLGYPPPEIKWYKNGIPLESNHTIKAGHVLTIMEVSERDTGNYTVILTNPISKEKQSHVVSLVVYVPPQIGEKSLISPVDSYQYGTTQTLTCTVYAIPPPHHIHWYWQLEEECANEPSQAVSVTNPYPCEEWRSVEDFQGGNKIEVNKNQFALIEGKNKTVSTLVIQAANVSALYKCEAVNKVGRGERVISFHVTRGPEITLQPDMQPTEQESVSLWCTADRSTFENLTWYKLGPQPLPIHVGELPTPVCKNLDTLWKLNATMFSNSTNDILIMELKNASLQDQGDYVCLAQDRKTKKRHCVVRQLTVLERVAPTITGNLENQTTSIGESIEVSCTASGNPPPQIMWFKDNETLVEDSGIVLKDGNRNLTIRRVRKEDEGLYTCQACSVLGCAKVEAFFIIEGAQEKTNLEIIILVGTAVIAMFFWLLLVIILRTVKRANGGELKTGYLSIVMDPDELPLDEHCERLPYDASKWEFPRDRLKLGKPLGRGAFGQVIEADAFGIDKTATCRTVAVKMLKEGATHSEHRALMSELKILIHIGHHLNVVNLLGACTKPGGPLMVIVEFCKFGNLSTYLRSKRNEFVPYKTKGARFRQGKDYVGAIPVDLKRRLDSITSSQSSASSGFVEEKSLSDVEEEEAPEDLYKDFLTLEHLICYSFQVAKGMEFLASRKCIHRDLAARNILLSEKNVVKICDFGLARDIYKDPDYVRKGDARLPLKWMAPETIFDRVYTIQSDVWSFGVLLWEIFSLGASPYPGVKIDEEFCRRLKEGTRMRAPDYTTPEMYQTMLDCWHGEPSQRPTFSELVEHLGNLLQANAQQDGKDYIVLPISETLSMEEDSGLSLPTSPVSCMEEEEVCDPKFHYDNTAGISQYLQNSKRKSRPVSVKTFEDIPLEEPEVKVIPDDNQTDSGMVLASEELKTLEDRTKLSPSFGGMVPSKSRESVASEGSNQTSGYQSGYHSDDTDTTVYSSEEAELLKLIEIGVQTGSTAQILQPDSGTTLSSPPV
T1 sequence (P49841 whole entry): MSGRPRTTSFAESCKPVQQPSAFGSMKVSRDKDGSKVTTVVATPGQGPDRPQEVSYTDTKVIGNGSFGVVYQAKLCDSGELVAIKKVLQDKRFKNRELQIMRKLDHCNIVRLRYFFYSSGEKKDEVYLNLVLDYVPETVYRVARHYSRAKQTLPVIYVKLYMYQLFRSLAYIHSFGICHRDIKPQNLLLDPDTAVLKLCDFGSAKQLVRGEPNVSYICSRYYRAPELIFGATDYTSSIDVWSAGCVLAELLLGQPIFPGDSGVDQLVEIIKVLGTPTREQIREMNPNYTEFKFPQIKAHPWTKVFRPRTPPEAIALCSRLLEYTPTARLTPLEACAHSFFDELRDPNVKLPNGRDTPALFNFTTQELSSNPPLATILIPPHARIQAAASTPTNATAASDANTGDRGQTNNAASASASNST
T3 sequence (O60674 whole entry): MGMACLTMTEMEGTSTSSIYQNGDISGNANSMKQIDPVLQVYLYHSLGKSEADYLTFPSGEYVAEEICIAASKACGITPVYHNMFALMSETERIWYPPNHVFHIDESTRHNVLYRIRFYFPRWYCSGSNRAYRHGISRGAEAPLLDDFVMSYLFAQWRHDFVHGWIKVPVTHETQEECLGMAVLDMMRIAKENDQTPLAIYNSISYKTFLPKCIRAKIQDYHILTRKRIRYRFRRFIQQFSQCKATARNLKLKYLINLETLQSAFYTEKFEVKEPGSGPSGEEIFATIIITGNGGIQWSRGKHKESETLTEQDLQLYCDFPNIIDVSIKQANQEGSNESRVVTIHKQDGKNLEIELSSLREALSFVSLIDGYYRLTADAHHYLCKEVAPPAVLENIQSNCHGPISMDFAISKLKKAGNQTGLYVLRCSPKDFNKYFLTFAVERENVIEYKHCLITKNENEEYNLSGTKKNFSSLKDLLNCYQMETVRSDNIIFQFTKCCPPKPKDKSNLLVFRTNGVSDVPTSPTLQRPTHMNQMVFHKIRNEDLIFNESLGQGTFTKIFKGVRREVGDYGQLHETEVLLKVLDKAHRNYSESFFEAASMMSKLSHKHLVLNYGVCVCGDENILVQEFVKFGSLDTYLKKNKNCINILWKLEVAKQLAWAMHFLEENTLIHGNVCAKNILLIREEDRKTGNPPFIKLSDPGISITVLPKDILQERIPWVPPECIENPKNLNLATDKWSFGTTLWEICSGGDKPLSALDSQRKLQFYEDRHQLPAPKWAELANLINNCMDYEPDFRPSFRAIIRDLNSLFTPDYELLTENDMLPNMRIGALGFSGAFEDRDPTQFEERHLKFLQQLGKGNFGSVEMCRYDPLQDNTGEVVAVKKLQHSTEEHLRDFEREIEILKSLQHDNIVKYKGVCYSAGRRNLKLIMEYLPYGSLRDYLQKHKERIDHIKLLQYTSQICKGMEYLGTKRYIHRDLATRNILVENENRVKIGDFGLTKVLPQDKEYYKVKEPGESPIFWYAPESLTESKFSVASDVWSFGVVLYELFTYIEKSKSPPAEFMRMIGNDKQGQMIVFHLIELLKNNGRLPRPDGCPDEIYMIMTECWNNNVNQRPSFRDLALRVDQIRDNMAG
T2 sequence (P36888 27-993): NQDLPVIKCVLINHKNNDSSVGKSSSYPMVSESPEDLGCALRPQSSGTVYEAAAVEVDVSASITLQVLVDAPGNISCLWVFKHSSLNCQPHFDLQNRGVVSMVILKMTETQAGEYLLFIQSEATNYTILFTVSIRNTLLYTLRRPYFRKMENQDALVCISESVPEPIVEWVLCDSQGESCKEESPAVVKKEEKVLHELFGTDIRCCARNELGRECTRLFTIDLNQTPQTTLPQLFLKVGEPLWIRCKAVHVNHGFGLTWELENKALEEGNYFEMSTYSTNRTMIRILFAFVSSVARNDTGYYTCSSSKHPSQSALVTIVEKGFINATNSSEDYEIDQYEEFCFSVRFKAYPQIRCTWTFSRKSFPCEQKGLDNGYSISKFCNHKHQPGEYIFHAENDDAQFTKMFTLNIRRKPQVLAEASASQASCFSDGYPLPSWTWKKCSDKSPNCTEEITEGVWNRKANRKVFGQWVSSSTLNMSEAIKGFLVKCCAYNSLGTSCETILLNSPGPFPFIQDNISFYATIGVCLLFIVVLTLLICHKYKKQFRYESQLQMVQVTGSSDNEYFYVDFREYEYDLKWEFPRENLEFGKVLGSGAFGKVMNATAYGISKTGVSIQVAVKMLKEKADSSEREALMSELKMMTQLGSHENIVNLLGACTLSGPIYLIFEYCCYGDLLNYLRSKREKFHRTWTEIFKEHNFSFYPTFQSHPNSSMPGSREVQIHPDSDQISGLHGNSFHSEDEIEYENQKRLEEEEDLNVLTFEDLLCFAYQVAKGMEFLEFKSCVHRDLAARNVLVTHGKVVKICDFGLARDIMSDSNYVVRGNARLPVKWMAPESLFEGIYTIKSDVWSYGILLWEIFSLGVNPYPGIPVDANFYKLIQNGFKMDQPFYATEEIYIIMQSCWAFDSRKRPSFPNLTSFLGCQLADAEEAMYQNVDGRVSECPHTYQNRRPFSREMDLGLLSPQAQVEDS

Structure (SMILES) | IC50 [8, 19] [nM] | EC50 [1] [nM] | IC50 [2, 20] [nM] | IC50 [3, 21] [nM] | IC50 [4, 22] [nM] | EC50 [5, 23] [nM] | IC50 [6, 24] [nM] | IC50 [7, 25] [nM] | IC50 ([9]; kinase assay) [nM] | IC50 [10, 26] [nM] | IC50 ([11]; kinase assay) [nM] | IC50 ([12]; kinase assay) [nM] | EC50 [13, 27] [nM] | EC50 [14, 28] [nM] | IC50 ([15]; kinase assay) [nM] | IC50 [16, 29] [nM] | IC50 ([17]; kinase assay) [nM] | IC50 [18, 30] [nM] | other results
COc1cccc2c1C(=O)c1c(O)c3c(c(O)c1C2=O)C[C@@](O)(C(C)=O)C[C@@H]3O[C@H]1C[C@H](N)[C@H](O)[C@H](C)O1 [Daunorubicin] | 9250 | – | – | – | – | – | – | – | – | – | – | – | – | – | – | – | – | – | EC50 ([1]; IC50 / EC50): 46.5 nM; IC50 ([2]; Homo sapiens, HT-29; read-out: Basal_Viability ATP HT-29): 648 nM; IC50 ([3]; Homo sapiens, RKO; read-out: Basal_Viability ATP RKO): 118 nM; IC50 ([4]; HCT-116, basal, read-out: Basal_Viability ATP HCT116): 50.9 nM; EC50 ([5]; Mus musculus, C2C12, IC50 / EC50; C2C12 beta-catenin translocation; read-out: Wnt Pathway): 6.1 nM; IC50 ([6]; DLD-1, basal, read-out: Basal_Viability ATP DLD-1): 188 nM; IC50 ([7]; SW480, basal, read-out: Basal_Viability ATP SW480): 1470 nM; IC50 [9]: > 20000 nM; IC50 ([10]; Homo sapiens, IC50 / EC50; endothelial tube area, ADSC/ECFC co-culture; read-out: Anti-Angiogenesis): > 10000 nM; IC50 [11]: > 20000 nM; IC50 [12]: > 20000 nM; EC50 ([13]; Homo sapiens; IC50 / EC50; NCI-H716; read-out: GLP 1 Secretion): > 10000 nM; EC50 ([14]; Rattus norvegicus; IC50 / EC50; INS-1E; read-out: Insulin Secretion): > 10000 nM; IC50 [15]: > 20000 nM; IC50 ([16]; HCT-116, GSK3b inhibitor pretreated, read-out: GSK3b inh pretreated_Viability ATP HCT116): 55.4 nM; IC50 [17]: > 20000 nM; IC50 ([18]; SNU-C1, basal, read-out: Basal_Viability ATP SNU-C1): 338 nM
Oc1c(I)cc(I)c2cccnc12 [Diiodohydroxyquinoline] | 21.3 | > 10000 | 705 | 22.7 | 41 | > 10000 | 17.8 | 3.6 | > 20000 | 2390 | > 20000 | > 20000 | > 10000 | > 10000 | > 20000 | 66.7 | > 20000 | 38.7 | –
O=c1c(-c2ccccc2)c1-c1ccccc1 [Diphenylcyclopropenone] | 3100 | > 10000 | > 20000 | > 20000 | > 20000 | 3620 | 4210 | > 20000 | > 20000 | 3840 | > 20000 | > 20000 | > 10000 | > 10000 | > 20000 | 7710 | > 20000 | > 20000 | –
COC(=O)Nc1nc2ccc(Sc3ccccc3)cc2[nH]1 [Fenbendazole] | – | – | – | – | – | – | – | – | > 20000 | – | > 20000 | > 20000 | – | – | > 20000 | – | > 20000 | – | EC50 ([1]; S2 Table, 20 = no response at highest concentration): 195 nM; IC50 ([2]; Homo sapiens; basal; HT-29; read-out: Basal_Viability ATP HT-29): > 20000 nM; IC50 ([3]; Homo sapiens; basal; RKO; read-out: Basal_Viability ATP RKO): 1 nM; IC50 ([4]; HCT-116, basal, HCT116, read-out: Basal_Viability ATP HCT116): 1 nM; EC50 ([5]; Mus musculus, C2C12; read-out: Wnt Pathway): 438 nM; IC50 ([6]; DLD-1, basal, DLD-1, read-out: Basal_Viability ATP DLD-1): 67.3 nM; IC50 ([7]; SW480, basal, SW480, read-out: Basal_Viability ATP SW480): > 20000 nM; IC50 ([8]; basal, Colo 320, read-out: Basal_Viability ATP Colo 320): > 20000 nM; IC50 ([10]; Homo sapiens; read-out: Anti-Angiogenesis): 207 nM; EC50 ([13]; Homo sapiens, NCI-H716; read-out: GLP 1 Secretion): > 20000 nM; EC50 ([14]; Rattus norvegicus, INS-1E; read-out: Insulin Secretion): > 10000 nM; IC50 ([16]; HCT-116, HCT116 pretreated with GSK3b inhibitor, read-out: GSK3b inh pretreated_Viability ATP HCT116): 3 nM; IC50 ([18]; SNU-C1, basal, SNU-C1, read-out: Basal_Viability ATP SNU-C1): > 20000 nM
O=c1[nH]c(=O)n([C@H]2C[C@H](O)[C@@H](CO)O2)cc1F [Floxuridine] | > 20000 | > 10000 | > 20000 | 1 | 1 | > 10000 | 1 | > 20000 | > 20000 | 21.6 | > 20000 | > 20000 | > 10000 | > 10000 | > 20000 | 1 | > 20000 | > 20000 | –
Cc1cc(O)c2c3c4c(cc(O)c13)C(C)(C)C(=O)c1c(O)cc(O)c(c1-4)C2=O [Heliomycin] | 82 | > 10000 | 3010 | 75.4 | 77.5 | 1070 | 70.9 | 58 | 6900 | 100 | 1970 | > 20000 | > 10000 | > 10000 | > 20000 | 57.3 | > 20000 | 332 | –
Sc1ncnc2nc[nH]c12 [Mercaptopurine] | 1300 | > 10000 | 635 | 659 | 259 | > 10000 | 260 | 1040 | > 20000 | 915 | > 20000 | > 20000 | > 10000 | > 10000 | > 20000 | 1420 | > 20000 | > 20000 | –
COc1c(C)c2c(c(O)c1C/C=C(\C)CCC(=O)O)C(=O)OC2 [Mycophenolate] | 1 | > 10000 | > 20000 | 165 | 67.2 | > 10000 | > 20000 | 2600 | > 20000 | 1260 | > 20000 | > 20000 | > 10000 | > 10000 | > 20000 | 49.8 | > 20000 | > 20000 | –
